Experimental data: patent US20240090503A1, “FUNGICIDAL OXADIAZOLES AND THEIR MIXTURES” (FMC CORPORATION, priority 2020, published 2024)

Assays:
[1] = tested on: Phakopsora pachyrhizi (the causal agent of Asian soybean rust); test: Test A: preventive spray on soybean seedlings, Asian soybean rust, visual disease rating; assay type: in vivo; conditions: soybean seedlings; for pest or weed control at 10 µg/mL: Phakopsora pachyrhizi, 216 h, read-out: Test A disease control rating
Outline: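 Compound in acetone/water (50/50) with 250 ppm PEG400 sprayed to run-off on soybean seedlings; inoculated next day with Phakopsora pachyrhizi spores. Held 24 h at 22° C in saturated atmosphere, then 8 days in a 22° C growth chamber before visual rating as % disease control relative to controls.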

[2] = tested on: Puccinia recondita f. sp. tritici (the causal agent of wheat leaf rust); test: Test C: preventive spray on wheat seedlings, wheat leaf rust, visual disease rating; assay type: in vivo; conditions: wheat seedlings; for pest or weed control at 10 µg/mL: Puccinia recondita, 168 h, read-out: Test C disease control rating
Outline: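 Wheat seedlings sprayed to run-off with compound in acetone/water (50/50) with 250 ppm PEG400, then inoculated with spores the following day. After 24 h saturated humidity at 20° C. and 6 days in growth chamber at 20° C., disease rated visually as % control relative to untreated controls.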

[3] = test suspension 10 ppm, 100 = 100% disease control, 0 = no control
[4] = 10 ppm test suspension, 100 = 100% disease control, 0 = no control
[5] = 50 ppm test suspension, 100 = 100% disease control, 0 = no control

O=C(OCC#Cc1ccccc1)c1cnn(Cc2ccc(-c3noc(C(F)(F)F)n3)cc2)c1 [compound 299]
Test A disease control rating [1, 3]: 100% | Test C disease control rating ([2]; test suspension 10 ppm): 86%

O=c1c2ccccc2sn1Cc1ccc(-c2noc(C(F)(F)F)n2)cc1 [compound 155]
Test A disease control rating [1, 3]: 60% | Test C disease control rating ([2]; test suspension 10 ppm): 0%

CCOC(=O)c1cc(CC)nn1Cc1ccc(-c2noc(C(F)(F)F)n2)cc1 [compound 81]
Test A disease control rating [1, 3]: 100% | Test C disease control rating ([2]; test suspension 10 ppm): 0%

C=CC(F)(F)OC(=O)c1cnn(Cc2ccc(-c3noc(C(F)(F)F)n3)cc2)c1 [compound 168]
Test A disease control rating [1, 3]: 100% | Test C disease control rating ([2]; test suspension 10 ppm): 100%

O=C(NCC=C(Cl)Cl)c1csc(Cc2ccc(-c3noc(C(F)(F)F)n3)cc2)n1 [compound 208]
Test A disease control rating [1, 3]: 100% | Test C disease control rating ([2]; test suspension 10 ppm): 86%

CC(C)OC(=O)c1cnn(Cc2cc(-c3noc(C(F)(F)F)n3)cs2)c1 [compound 251]
Test A disease control rating [1, 3]: 100% | Test C disease control rating ([2]; test suspension 10 ppm): 74%

CCCCON=C(C)COC(=O)c1cnn(Cc2ccc(-c3noc(C(F)(F)F)n3)cc2)c1 [compound 219]
Test A disease control rating [1, 3]: 100% | Test C disease control rating ([2]; test suspension 10 ppm): 86%

CC(C)(C)c1ccn(Cc2ccc(-c3noc(C(F)(F)F)n3)cc2)n1 [compound 98]
Test A disease control rating ([1]; test suspension 50 ppm): 99% | Test C disease control rating ([2]; test suspension 50 ppm): 68%

N#CCNC(=O)c1cnn(Cc2ccc(-c3noc(C(F)(F)F)n3)cc2)c1 [compound 65]
Test A disease control rating [1, 3]: 100% | Test C disease control rating ([2]; test suspension 10 ppm): 100%

FC(F)(F)c1nc(-c2ccc(Cn3ncc4c(I)ccnc43)cc2)no1 [compound 444]
Test A disease control rating [1, 4]: 96% | Test C disease control rating [2, 4]: 86%

CC(COC(=O)c1cnn(Cc2ccc(-c3noc(C(F)(F)F)n3)cc2)c1)=NOC(C)C [compound 222]
Test A disease control rating [1, 3]: 100% | Test C disease control rating ([2]; test suspension 10 ppm): 97%

Cc1cc(C(=O)NCC#N)nn1Cc1ccc(-c2noc(C(F)(F)F)n2)cc1 [compound 181]
Test A disease control rating [1, 3]: 100% | Test C disease control rating ([2]; test suspension 10 ppm): 100%

CCNC(=O)C1=NOC(Cc2ccc(-c3noc(C(F)(F)F)n3)s2)C1 (centres unmarked) [compound 369]
Test A disease control rating ([1]; test suspension 50 ppm): 100% | Test C disease control rating ([2]; test suspension 50 ppm): 100%

CCOC(=O)c1cncn(Cc2ccc(-c3noc(C(F)(F)F)n3)cc2)c1=O [compound 418]
Test A disease control rating [1, 4]: 100% | Test C disease control rating [2, 4]: 99%

Cc1cccc2nn(Cc3ccc(-c4noc(C(F)(F)F)n4)cc3)cc12 [compound 102]
Test A disease control rating [1, 3]: 100% | Test C disease control rating ([2]; test suspension 10 ppm): 99%

O=C1c2ccnn2CCN1Cc1ccc(-c2noc(C(F)(F)F)n2)cc1 [compound 297]
Test A disease control rating [1, 3]: 100% | Test C disease control rating ([2]; test suspension 10 ppm): 93%

N#CCNC(=O)c1nn(Cc2ccc(-c3noc(C(F)(F)F)n3)cc2)c2ccccc12 [compound 44]
Test A disease control rating [1, 3]: 100% | Test C disease control rating ([2]; test suspension 10 ppm): 95%

CCOC(=O)c1cnn(C(C)c2ccc(-c3noc(C(F)(F)F)n3)s2)c1 (centres unmarked) [compound 247]
Test A disease control rating [1, 3]: 100% | Test C disease control rating ([2]; test suspension 10 ppm): 100%

N#Cc1ccc2c(cnn2Cc2ccc(-c3noc(C(F)(F)F)n3)cc2)c1 [compound 106]
Test A disease control rating ([1]; test suspension 50 ppm): 100% | Test C disease control rating ([2]; test suspension 50 ppm): 100%

C=C(Br)COC(=O)c1cnn(Cc2ccc(-c3noc(C(F)(F)F)n3)cc2)c1 [compound 167]
Test A disease control rating [1, 3]: 100% | Test C disease control rating ([2]; test suspension 10 ppm): 100%

CC(C)CCOC(=O)c1cnn(Cc2ccc(-c3noc(C(F)(F)F)n3)cc2)c1 [compound 480]
Test A disease control rating [1, 4]: 100% | Test C disease control rating [2, 4]: 98%

CCOC(=O)COC(=O)c1cnn(Cc2ccc(-c3noc(C(F)(F)F)n3)cc2)c1 [compound 476]
Test A disease control rating [1, 4]: 100% | Test C disease control rating [2, 4]: 86%

N#Cc1cccc2nn(Cc3ccc(-c4noc(C(F)(F)F)n4)cc3)cc12 [compound 107]
Test A disease control rating [1, 3]: 100% | Test C disease control rating ([2]; test suspension 10 ppm): 90%

CCON=C(C)COC(=O)c1cnn(Cc2ccc(-c3noc(C(F)(F)F)n3)cc2)c1 [compound 221]
Test A disease control rating [1, 3]: 100% | Test C disease control rating ([2]; test suspension 10 ppm): 95%

C=CCNC(=O)c1cnn(Cc2ccc(-c3noc(C(F)(F)F)n3)cc2)c1 [compound 64]
Test A disease control rating [1, 3]: 100% | Test C disease control rating ([2]; test suspension 10 ppm): 100%

COC(=O)c1cnn(CCc2ccc(-c3noc(C(F)(F)F)n3)cc2)c1 [compound 436]
Test A disease control rating [1, 4]: 100% | Test C disease control rating [2, 4]: 74%

Cc1cc(C(=O)O)nn1Cc1ccc(-c2noc(C(F)(F)F)n2)cc1 [compound 179]
Test A disease control rating [1, 3]: 98% | Test C disease control rating ([2]; test suspension 10 ppm): 9%

COC(=O)c1ccc2cnn(Cc3ccc(-c4noc(C(F)(F)F)n4)cc3)c2c1 [compound 41]
Test A disease control rating [1, 3]: 100% | Test C disease control rating ([2]; test suspension 10 ppm): 98%

FC(F)(F)c1nc(-c2ccc(Cn3ccc4cnccc43)cc2)no1 [compound 137]
Test A disease control rating [1, 3]: 100% | Test C disease control rating ([2]; test suspension 10 ppm): 41%

COC(=O)c1ccn(Cc2ccc(-c3noc(C(F)(F)F)n3)cc2)c(=O)c1 [Compound 24, methyl 1,2-dihydro-2-oxo-1-[[4-[5-(trifluoromethyl)-1,2,4-oxadiazol-3-yl]phenyl]methyl]-4-pyridinecarboxylate]
pest or weed control at 10 µg/mL [1, 3]: 100% | pest or weed control at 10 µg/mL ([2]; test suspension 10 ppm): 95%

CSCC(=O)COC(=O)c1cnn(Cc2ccc(-c3noc(C(F)(F)F)n3)cc2)c1 [compound 434]
Test A disease control rating [1, 4]: 100% | Test C disease control rating [2, 4]: 98%

CCOC(=O)c1cn(Cc2ccc(-c3noc(C(F)(F)F)n3)cc2)nn1 [compound 303]
Test A disease control rating [1, 3]: 100% | Test C disease control rating ([2]; test suspension 10 ppm): 100%

N#Cc1c(Br)cnn1Cc1ccc(-c2noc(C(F)(F)F)n2)s1 [compound 77]
Test A disease control rating ([1]; test suspension 50 ppm): 100% | Test C disease control rating ([2]; test suspension 50 ppm): 100%

CCOC(=O)c1cc(C)nn1Cc1ccc(-c2noc(C(F)(F)F)n2)cc1 [compound 109]
Test A disease control rating ([1]; test suspension 50 ppm): 100% | Test C disease control rating ([2]; test suspension 50 ppm): 77%

FC(F)(F)c1nc(-c2ccc(Cn3ncc4c(I)cc(Cl)cc43)cc2)no1 [compound 39]
Test A disease control rating [1, 3]: 44% | Test C disease control rating ([2]; test suspension 10 ppm): 28%

O=C1N(Cc2ccc(-c3noc(C(F)(F)F)n3)cc2)CCc2cncn21 [compound 462]
Test A disease control rating [1, 4]: 100% | Test C disease control rating [2, 4]: 89%

COC(=O)c1cccn(Cc2ccc(-c3noc(C(F)(F)F)n3)cc2)c1=O [compound 422]
Test A disease control rating [1, 4]: 90% | Test C disease control rating [2, 4]: 93%

CNC(=O)C1=NOC(Cc2ccc(-c3noc(C(F)(F)F)n3)s2)C1 (centres unmarked) [compound 368]
Test A disease control rating ([1]; test suspension 50 ppm): 100% | Test C disease control rating ([2]; test suspension 50 ppm): 100%

CON=C(COC(=O)c1cnn(Cc2ccc(-c3noc(C(F)(F)F)n3)cc2)c1)c1ccccc1 [compound 245]
Test A disease control rating [1, 3]: 100% | Test C disease control rating ([2]; test suspension 10 ppm): 86%

FC(F)(F)c1nc(-c2ccc(CCCn3ccc(-c4ccc(Cl)cc4)n3)cc2)no1 [compound 361]
Test A disease control rating [1, 3]: 100% | Test C disease control rating ([2]; test suspension 10 ppm): 0%

COC(=O)c1ccc(=O)n(Cc2ccc(-c3noc(C(F)(F)F)n3)cc2)c1 [compound 420]
Test A disease control rating [1, 4]: 100% | Test C disease control rating [2, 4]: 100%

CC(C)ONC(=O)c1cnn(Cc2ccc(-c3noc(C(F)(F)F)n3)cc2)c1 [compound 270]
Test A disease control rating [1, 3]: 100% | Test C disease control rating ([2]; test suspension 10 ppm): 100%

CCCNC(=O)c1cnn(Cc2ccc(-c3noc(C(F)(F)F)n3)cc2)c1 [compound 68]
Test A disease control rating [1, 3]: 100% | Test C disease control rating ([2]; test suspension 10 ppm): 100%

CSc1nnn(Cc2ccc(-c3noc(C(F)(F)F)n3)cc2)c1C [compound 40]
Test A disease control rating [1, 3]: 100% | Test C disease control rating ([2]; test suspension 10 ppm): 92%

Cc1cc(C(=O)OCC#N)nn1Cc1ccc(-c2noc(C(F)(F)F)n2)cc1 [compound 184]
Test A disease control rating [1, 3]: 100% | Test C disease control rating ([2]; test suspension 10 ppm): 55%

C=CCOC(=O)c1cnn(Cc2cc(OC)c(-c3noc(C(F)(F)F)n3)s2)c1 [compound 440]
Test A disease control rating [1, 4]: 0% | Test C disease control rating [2, 4]: 0%

CCCON=Cc1cnn(Cc2ccc(-c3noc(C(F)(F)F)n3)cc2)c1 [compound 385]
Test A disease control rating [1, 4]: 100% | Test C disease control rating [2, 4]: 100%

FC(F)(F)c1nc(-c2ccc(Cn3ccc4ncccc43)cc2)no1 [Compound 136, 1-[[4-[5-(trifluoromethyl)-1,2,4-oxadiazol-3-yl]phenyl]methyl]-1H-pyrrolo[3,2-b]pyridine]
pest or weed control at 10 µg/mL [1, 3]: 100% | pest or weed control at 10 µg/mL ([2]; test suspension 10 ppm): 68%

COc1ccc2nn(Cc3ccc(-c4noc(C(F)(F)F)n4)cc3)cc2c1 [compound 131]
Test A disease control rating [1, 3]: 100% | Test C disease control rating ([2]; test suspension 10 ppm): 99%

Cc1ccc(F)cc1OCc1ccc(-c2noc(C(F)(F)F)n2)s1 [compound 375]
Test A disease control rating [1, 3]: 100% | Test C disease control rating ([2]; test suspension 10 ppm): 98%

Nc1cnn(Cc2ccc(-c3noc(C(F)(F)F)n3)cc2)c1 [compound 381]
Test A disease control rating [1, 4]: 0% | Test C disease control rating [2, 4]: 0%

CN(C)C(=O)C1=NOC(Cc2ccc(-c3noc(C(F)(F)F)n3)s2)C1 (centres unmarked) [compound 460]
Test A disease control rating [1, 5]: 100% | Test C disease control rating [2, 5]: 99%
